The experiment deals with BDF1 mice, P388 leukemia ip, median survival T/C. Put plainly: NCI In Vivo Anticancer Drug Screen. Data for tumor model P388 Leukemia (intraperitoneal) in B6D2F1 (BDF1) mice. The note with it: endpoint: median survival time, higher = longer survival. Put shortly:
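Vehicle-dosed animals serve as the reference; survival of compound-dosed, tumour-implanted mice is divided by it.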

[1] abbreviates: dose: 50.0 mg/kg/injection, schedule: Q01DX009 (ip), vehicle: saline with Tween-80.
The mark [2] stands for this setting: dose: 100.0 mg/kg/injection, schedule: Q01DX009 (ip), vehicle: saline with Tween-80.
Setting [3] is: dose: 200.0 mg/kg/injection, schedule: Q01DX009 (ip), vehicle: saline with Tween-80.

Experimental findings from PubChem BioAssay AID328 (DTP/NCI, 2004) are described below.

Where “and” joins values, the source holds several entries; their conditions need not be identical. Equal entries are not always repeated. Toxic doses and inconclusive results are not listed.

`COCCn1c2nc(=O)n(-c3ccccc3)c(=O)c-2nc2c1CCCC2`: the T/C (dose: 25.0 mg/kg/injection, schedule: Q01DX009 (ip), vehicle: saline with Tween-80) is 103 % of control; the T/C under setting [1] is 97 % of control and 112 % of control; the T/C under setting [2] is 113 % of control and 124 % of control; the T/C under setting [3] is 110 % of control.
With `O=C(OC(c1ccccc1)(C(F)(F)F)C(F)(F)F)c1cccc(Cl)c1`, the T/C reads like this: under setting [1], 104 % of control; under setting [2], 109 % of control; under setting [3], 118 % of control.
The like results for `Cc1ccc(-n2c(O)c(C=N)c(=O)[nH]c2=O)cc1` were, in that order, 86 % of control, 86 % of control and 113 % of control.
With `O=c1[nH]c(=O)c2nccnc2[nH]1`, the T/C runs as follows: (dose: 12.5 mg/kg/injection, schedule: Q01DX009 (ip), vehicle: water) 86 % of control; (dose: 12.5 mg/kg/injection, schedule: Q04DX003 (ip), vehicle: water) 266 % of control and 120 % of control; (dose: 25.0 mg/kg/injection, schedule: Q01DX009 (ip), vehicle: water) 111 % of control; (dose: 25.0 mg/kg/injection, schedule: Q04DX003 (ip), vehicle: water) 270 % of control and 113 % of control; (dose: 50.0 mg/kg/injection, schedule: Q01DX009 (ip), vehicle: water) 92 % of control; (dose: 50.0 mg/kg/injection, schedule: Q04DX003 (ip), vehicle: water) 266 % of control and 111 % of control. For the same compound, the T/C is 104 % of control (dose: 100.0 mg/kg/injection, schedule: Q01DX009 (ip), vehicle: water); 268 % of control and 102 % of control (dose: 100.0 mg/kg/injection, schedule: Q04DX003 (ip), vehicle: water); 95 % of control (dose: 200.0 mg/kg/injection, schedule: Q04DX003 (ip), vehicle: water).
With `Cc1cccc2c(N3CCOCC3)c3c(nc12)CCCCC3`, the T/C is 105 % of control (dose: 100.0 mg/kg/injection, schedule: Q04DX003 (ip), vehicle: saline with Tween-80); 95 % of control (dose: 200.0 mg/kg/injection, schedule: Q04DX003 (ip), vehicle: saline with Tween-80); 100 % of control (dose: 400.0 mg/kg/injection, schedule: Q04DX003 (ip), vehicle: saline with Tween-80).
With `O=CN1CCN(c2ccc([N+](=O)[O-])c3nonc23)CC1`, the T/C runs as follows: (dose: 15.0 mg/kg/injection, schedule: Q01DX009 (ip), vehicle: saline with Tween-80) 103 % of control; (dose: 20.0 mg/kg/injection, schedule: Q04DX003 (ip), vehicle: saline with Tween-80) 100 % of control; (dose: 30.0 mg/kg/injection, schedule: Q01DX009 (ip), vehicle: saline with Tween-80) 100 % of control; (dose: 40.0 mg/kg/injection, schedule: Q04DX003 (ip), vehicle: saline with Tween-80) 99 % of control; (dose: 80.0 mg/kg/injection, schedule: Q04DX003 (ip), vehicle: saline with Tween-80) 95 % of control.
Turning to `NC(=O)c1ncccc1C(=O)O`, the T/C (dose: 100.0 mg/kg/injection, schedule: Q01DX001 (ip), vehicle: saline with Tween-80) was 103 % of control; the T/C (dose: 200.0 mg/kg/injection, schedule: Q01DX001 (ip), vehicle: saline with Tween-80) is 100 % of control; the T/C (dose: 400.0 mg/kg/injection, schedule: Q01DX001 (ip), vehicle: saline with Tween-80) is 96 % of control.
As to `Nc1ccn([C@@H](C=O)O[C@@H](C=O)CO)c(=O)n1`, the T/C by setting is: (dose: 8.8 mg/kg/injection, schedule: Q01DX009 (ip), vehicle: saline) 115 % of control; (dose: 66.0 mg/kg/injection, schedule: Q04DX003 (ip), vehicle: saline) 100 % of control; (dose: 100.0 mg/kg/injection, schedule: Q04DX003 (ip), vehicle: saline) 112 % of control; (dose: 150.0 mg/kg/injection, schedule: Q04DX003 (ip), vehicle: saline) 120 % of control; (dose: 200.0 mg/kg/injection, schedule: Q04DX003 (ip), vehicle: saline) 150 % of control; (dose: 400.0 mg/kg/injection, schedule: Q04DX003 (ip), vehicle: saline) 181 % of control.
As for `OCCNCCN1CCN(CCCN2c3ccccc3Sc3ccc(C(F)(F)F)cc32)CC1`, the T/C is 104 % of control (dose: 6.25 mg/kg/injection, schedule: Q04DX003 (ip), vehicle: saline); 110 % of control (dose: 12.5 mg/kg/injection, schedule: Q04DX003 (ip), vehicle: saline); 91 % of control and 110 % of control (dose: 25.0 mg/kg/injection, schedule: Q04DX003 (ip), vehicle: saline); 91 % of control (dose: 50.0 mg/kg/injection, schedule: Q04DX003 (ip), vehicle: saline).
On to `COc1ccc(OC)c(NC(=O)NC(c2ccccc2)c2ccccc2)c1`, for which the T/C (dose: 12.5 mg/kg/injection, schedule: Q01DX009 (ip), vehicle: Klucel (hydroxypropylcellulose) (HPC)) was 93 % of control.
On to `CCOc1ccn(CC(=O)c2ccc(Cl)s2)c(=O)n1`, for which the T/C is 106 % of control under setting [1]; 113 % of control under setting [2]; 97 % of control under setting [3]; 106 % of control (dose: 400.0 mg/kg/injection, schedule: Q01DX009 (ip), vehicle: saline with Tween-80).
As to `CCC(=O)N(c1ccccc1)c1ccccc1`, the T/C is 99 % of control (dose: 75.0 mg/kg/injection, schedule: Q01DX009 (ip), vehicle: saline with Tween-80); 100 % of control (dose: 150.0 mg/kg/injection, schedule: Q01DX009 (ip), vehicle: saline with Tween-80); 108 % of control (dose: 300.0 mg/kg/injection, schedule: Q01DX009 (ip), vehicle: saline with Tween-80).
